Results as given in patent publication US8119563B2, “N-substituted azacycles” (FMC Corporation, priority 2003, dated 2012).

System: tobacco budworm (Heliothis virescens [Fabricius])
Assay: surface-treated diet test, insecticidal activity against tobacco budworm
Format: in vivo
Design: mortality: concentration or dose not given beside the values
Details: 0.25 millimoles of candidate insecticide on the surface of the diet, second instar larvae, five-day exposure
How it was run: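 Second-instar larvae (~5 mg) were held five days at 25° C and 60% RH on artificial diet whose surface carried dried compound (0.25 millimolar standard rate; DMSO serial dilutions for rate series, six replicates each). Readouts: mortality and weight inhibition relative to DMSO-treated controls.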

[1] = compared to total number of insects infested
[2] = inhibition of insect weight relative to untreated controls

Row | SMILES | Percent Mortality [1] [%] | Percent Growth Inhibition [2] [%] | mortality (Heliothis virescens, 120 h, compared to total number of insects infested, read-out: Percent Mortality) [%] | pest or weed control at 0.25 mmol/well (Heliothis virescens, 120 h, inhibition of insect weight relative to untreated controls, read-out: Percent Growth Inhibition) [%]
1 | Cc1ccnc(Oc2ccc(CN3CCC(O)(C(c4ccc(OC(F)(F)F)cc4)c4ccc(OC(F)(F)F)cc4)CC3)cc2)c1 [Compound 321] | 100 | 100 |  | 
2 | OC1(C(c2ccc(OC(F)(F)F)cc2)c2ccc(OC(F)(F)F)cc2)CCN(Cc2ccc(Oc3ccccc3Cl)cc2)CC1 [Compound 297] | 100 | 100 |  | 
3 | [O-][N+]1(Cc2ccc(Oc3ccc(Cl)nn3)cc2)CCC(O)(C(O)(c2ccc(OC(F)(F)F)cc2)c2ccc(OC(F)(F)F)cc2)CC1 (centres unmarked) [Compound 425] | 100 | 100 |  | 
4 | [O-][N+]1(Cc2ccc(Oc3ccccn3)cc2)CCC(O)(C(c2ccc(OC(F)(F)F)cc2)c2ccc(Cl)cc2Cl)CC1 (centres unmarked) [Compound 454] | 100 | 100 |  | 
5 | CCON=Cc1ccc(C[N+]2(O)CCC(O)(C(c3ccc(OC(F)(F)F)cc3)c3ccc(OC(F)(F)F)cc3)CC2)cc1.O=S(=O)([O-])CCCO (centres unmarked) [Compound 483] | 100 | 100 |  | 
6 | OC(COc1ccc(Cl)cc1)CN1CCC(O)(C(c2ccc(OC(F)(F)F)cc2)c2ccc(OC(F)(F)F)cc2)CC1 (centres unmarked) [Compound 470] | 17 | 89 |  | 
7 | OC1(C(c2ccc(Cl)cc2)c2ccc(C(F)(F)F)cc2)CCN(Cc2ccc(Oc3ncccn3)cc2)CC1 (centres unmarked) [Compound 7] | 100 | 100 |  | 
8 | [O-][N+]1(Cc2ccc(Oc3ccccn3)cc2)CCC(O)(C(c2ccc(Br)cc2)c2ccc(OC(F)(F)F)cc2)CC1 (centres unmarked) [Compound 339] | 100 | 100 |  | 
9 | O=C(Nc1ccc(CN2CCC(O)(C(c3ccc(OC(F)(F)F)cc3)c3ccc(OC(F)(F)F)cc3)CC2)cc1)OCC1CC1 [Compound 327] | 100 | 100 |  | 
10 | OC1(C(c2ccc(OC(F)(F)F)cc2)c2ccc(OC(F)(F)F)cc2)CCN(CCCOc2ccc(Cl)cc2)CC1 [Compound 473] | 100 | 100 |  | 
11 | FC(F)(F)Oc1ccc(C(c2ccc(OC(F)(F)F)cc2)C2(F)CCN(Cc3ccc(Oc4ncccn4)cc3)CC2)cc1 [Compound 192, 4-{bis[4-(trifluoromethoxy)phenyl]methyl}-4-fluoro-1-[(4-pyrimidin-2-yloxyphenyl)methyl]piperidine] |  |  | 100 | 100
12 | OC(c1ccc(CN2CCC(O)(C(c3ccc(OC(F)(F)F)cc3)c3ccc(OC(F)(F)F)cc3)CC2)cc1)c1ccccn1 (racemic) [Compound 282] | 100 | 100 |  | 
13 | N#CCON=Cc1ccc(CN2CCC(O)(C(c3ccc(OC(F)(F)F)cc3)c3ccc(OC(F)(F)F)cc3)CC2)cc1 [Compound 275] | 100 | 100 |  | 
14 | CC(=O)OCC1(C(c2ccc(C(F)(F)F)cc2)c2ccc(C(F)(F)F)cc2)CCN(Cc2ccc(Oc3ncccn3)cc2)CC1 [Compound 452] | 0 | 100 |  | 
15 | OC1(C(c2ccc(OC(F)(F)F)cc2)c2ccc(OC(F)(F)F)cc2)CCN(Cc2ccc(-c3ccccn3)cc2)CC1 [Compound 309] | 100 | 100 |  | 
16 | CCON=Cc1ccc(CN2CCC(O)(C(c3ccc(OC(F)(F)F)cc3)c3ccc(OC(F)(F)F)cc3)CC2)cc1 [Compound 28] | 100 | 100 |  | 
17 | OC1(C(c2ccccc2)c2ccc(OC(F)(F)F)cc2)CCN(Cc2ccc(Oc3ccccn3)cc2)CC1 (racemic) [Compound 288] | 100 | 100 |  | 
18 | O=C(Nc1ccc(CN2CCC(O)(C(c3ccc(C(F)(F)F)cc3)c3ccc(C(F)(F)F)cc3)CC2)cc1)OCC1CC1 [Compound 319] | 100 | 100 |  | 
19 | OC1(C(c2cccc(F)c2)c2cccc(F)c2)CCN(Cc2ccc(Oc3ncccn3)cc2)CC1 [Compound 8] | 0 | 41 |  | 
